Consider 40 molecules from patent publication US11014911B2, “CDK2 inhibitors” (Pfizer Inc., priority 2019, dated 2021).

pKi: −log10 of the molar value. Read-outs that look alike come from different tables or passages of the source.

For test [1], the target named is CDK2/Cyclin E1 full length (Homo sapiens (Human), UniProt P24941). The experiment in a line: CDK2/Cyclin E1 full length mobility shift assay. The test is classed as biochemical.
For test [2], the target named is T1, GSK3β (H350L) (Homo sapiens (Human), UniProt P49841). The experiment in a line: biochemical. To be noted: GSK3β Ki (nM).
Method: (§1) The assay was initiated with the addition of ATP, following 15 minutes pre-incubation of enzyme and inhibitor at room temperature in the reaction mixture. The reaction was stopped after 30 minutes at room temperature by the addition of 50 μL of 80 mM EDTA.
Test [3] concerns the target T1, GSK3β (H350L). As to conditions: read-out: GSK3β Ki.
Method: as §1

T1 sequence (P49841 whole entry, stated change not applied): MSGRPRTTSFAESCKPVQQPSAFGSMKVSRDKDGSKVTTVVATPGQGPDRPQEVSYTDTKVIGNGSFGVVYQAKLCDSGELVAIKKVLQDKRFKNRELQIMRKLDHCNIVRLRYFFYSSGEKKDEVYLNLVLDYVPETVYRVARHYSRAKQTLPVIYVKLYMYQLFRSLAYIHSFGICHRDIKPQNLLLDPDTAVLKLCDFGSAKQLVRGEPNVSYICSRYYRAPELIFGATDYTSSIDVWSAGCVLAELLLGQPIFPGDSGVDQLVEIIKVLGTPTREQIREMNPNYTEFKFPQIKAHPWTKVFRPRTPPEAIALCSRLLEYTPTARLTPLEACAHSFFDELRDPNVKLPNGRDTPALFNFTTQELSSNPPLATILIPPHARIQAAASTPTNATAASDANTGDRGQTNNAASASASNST

Broadly, the pKi is the Ki on a negative log10 scale, so that one unit is a factor of ten. As a reminder, the Ki is the dissociation constant of the complex between target and ligand, obtained from inhibition or displacement. As for `COCc1cc(C(=O)Nc2cc([C@H]3CC[C@@H](OC(=O)NC(C)CC(F)(F)F)C3)[nH]n2)n(C)n1` (single isomer, unassigned) [Example 9], in test [1], the pKi is 8.94. On GSK3β (H350L) [2], the Ki was over 95.3 nM.
The corresponding values for `COCc1cc(C(=O)Nc2cc([C@H]3CC[C@@H](OC(=O)NC(C)CC(F)(F)F)C3)[nH]n2)n(C)n1` (single isomer, unassigned) [Example 10] are 9.60 and 101 nM.
The like results for `CCCNC(=O)O[C@H]1CC[C@@H](c2cc(NC(=O)C3COc4ccccc43)n[nH]2)C1` (single isomer, unassigned) [Example 24] were, in that order, 9.59 and 20.6 nM.
Take `CCCNC(=O)O[C@H]1CC[C@@H](c2cc(NC(=O)C3COc4ccccc43)n[nH]2)C1` (single isomer, unassigned) [Example 25]: the negative logarithm of the Ki (pKi) in test [1] was 8.57. This molecule also displayed an inhibition constant (Ki) on GSK3β (H350L) [2] of 135 nM.
As to `CC(C)NC(=O)O[C@@H]1CC[C@H](c2cc(NC(=O)C3COc4ccccc43)n[nH]2)C1` (single isomer, unassigned) [Example 56], the negative logarithm of the Ki (pKi) in test [1] was 9.60. The molecule further yielded an inhibition constant (Ki) on GSK3β (H350L) [2] of 42.8 nM.
The corresponding values for `CC(CC(F)(F)F)NC(=O)O[C@@H]1CC[C@H](c2cc(NC(=O)Cc3ccon3)n[nH]2)C1` (single isomer, unassigned) [Example 64] are 9.85 and 18.7 nM.
With `CC(CC(F)(F)F)NC(=O)O[C@@H]1CC[C@H](c2cc(NC(=O)Cc3ccn(C)n3)n[nH]2)C1` (single isomer, unassigned) [Example 66], in test [1], the pKi was 9.77. Moreover, the inhibition constant (Ki) on GSK3β (H350L) [2] is 17.9 nM.
The like results for `COc1cnc(CC(=O)Nc2cc([C@H]3CC[C@@H](OC(=O)NC(C)CC(F)(F)F)C3)[nH]n2)cn1` (single isomer, unassigned) [Example 68] were, in that order, 9.44 and 16.3 nM.
The corresponding values for `Cc1ccc(C(=O)Nc2cc([C@H]3CC[C@@H](OC(=O)NC(C)CC(F)(F)F)C3)[nH]n2)cn1` (single isomer, unassigned) [Example 70] are 9.46 and 31.3 nM.
The like results for `Cc1cc(CC(=O)Nc2cc([C@H]3CC[C@@H](OC(=O)NC(C)CC(F)(F)F)C3)[nH]n2)on1` (single isomer, unassigned) [Example 71] were, in that order, 9.00 and 33.8 nM.
`Cc1cc(CC(=O)Nc2cc([C@H]3CC[C@@H](OC(=O)NC(C)CC(F)(F)F)C3)[nH]n2)on1` (single isomer, unassigned) [Example 72]: the pKi in test [1] is 9.82. The molecule further registered a Ki at GSK3β (H350L) [2] of 12.8 nM.
The corresponding values for `Cc1cnc(CC(=O)Nc2cc([C@H]3CC[C@@H](OC(=O)NC(C)CC(F)(F)F)C3)[nH]n2)cn1` (single isomer, unassigned) [Example 74] are 9.52 and 13.2 nM.
The corresponding values for `Cc1ccc(CC(=O)Nc2cc([C@H]3CC[C@@H](OC(=O)NC(C)CC(F)(F)F)C3)[nH]n2)cn1` (single isomer, unassigned) [Example 75] are 9.59 and 9.59 nM.
`Cc1ccc(CC(=O)Nc2cc([C@H]3CC[C@@H](OC(=O)NC(C)CC(F)(F)F)C3)[nH]n2)cn1` (single isomer, unassigned) [Example 76]: the pKi in test [1] was 10.00. For the same molecule, at GSK3β (H350L) [2], the affinity corresponds to a Ki of 4.96 nM.
The like results for `COc1cc(CC(=O)Nc2cc([C@H]3CC[C@@H](OC(=O)NC(C)CC(F)(F)F)C3)[nH]n2)ccn1` (single isomer, unassigned) [Example 77] were, in that order, 9.41 and 19.7 nM.
As for `COc1cc(CC(=O)Nc2cc([C@H]3CC[C@@H](OC(=O)NC(C)CC(F)(F)F)C3)[nH]n2)ccn1` (single isomer, unassigned) [Example 78], in test [1], the pKi was 9.82. This molecule also yielded a Ki on GSK3β (H350L) [2] of 8.9 nM.
As to `Cc1ncc(CC(=O)Nc2cc([C@H]3CC[C@@H](OC(=O)NC(C)CC(F)(F)F)C3)[nH]n2)s1` (single isomer, unassigned) [Example 79], in test [1], the pKi is 9.27. Also, at GSK3β (H350L) [2], the Ki was 16.5 nM.
With `Cc1ncc(CC(=O)Nc2cc([C@H]3CC[C@@H](OC(=O)NC(C)CC(F)(F)F)C3)[nH]n2)s1` (single isomer, unassigned) [Example 80], the negative-log Ki (pKi) in test [1] is 9.82. Besides, affinity on GSK3β (H350L) [2] was put at a Ki of 8.85 nM.
The corresponding values for `Cc1cnc(CC(=O)Nc2cc([C@H]3CC[C@@H](OC(=O)NC(C)CC(F)(F)F)C3)[nH]n2)o1` (single isomer, unassigned) [Example 81] are 8.83 and 32.9 nM.
With `Cc1cnc(CC(=O)Nc2cc([C@H]3CC[C@@H](OC(=O)NC(C)CC(F)(F)F)C3)[nH]n2)o1` (single isomer, unassigned) [Example 82], the pKi in test [1] is 9.72. For the same molecule, at GSK3β (H350L) [2], the affinity corresponds to a Ki of 12.6 nM.
The corresponding values for `CC(CC(F)(F)F)NC(=O)O[C@@H]1CC[C@H](c2cc(NC(=O)Cc3cnco3)n[nH]2)C1` (single isomer, unassigned) [Example 83] are 9.16 and 33.3 nM.
The like results for `CC(CC(F)(F)F)NC(=O)O[C@@H]1CC[C@H](c2cc(NC(=O)Cc3cnco3)n[nH]2)C1` (single isomer, unassigned) [Example 84] were, in that order, 10.00 and 12 nM.
The corresponding values for `CC(CC(F)(F)F)NC(=O)O[C@@H]1CC[C@H](c2cc(NC(=O)Cc3ccno3)n[nH]2)C1` (single isomer, unassigned) [Example 86] are 9.60 and 12.9 nM.
Take `CC(CC(F)(F)F)N(C)C(=O)O[C@@H]1CC[C@H](c2cc(NC(=O)Cc3ccno3)n[nH]2)C1` (single isomer, unassigned) [Example 90]: the pKi in test [1] is 9.64. Besides, the Ki on GSK3β (H350L) [2] worked out at 2.36 nM.
As for `Cc1cnc(CC(=O)Nc2cc([C@H]3CC[C@@H](OC(=O)NC(C)CC(F)F)C3)[nH]n2)o1` (single isomer, unassigned) [Example 97], the pKi in test [1] is 9.41. On GSK3β (H350L) [2], this molecule yielded an inhibition constant (Ki) of 18 nM.
Turning to `COc1cc(CC(=O)Nc2cc([C@H]3CC[C@@H](OC(=O)NC(C)CC(F)F)C3)[nH]n2)ccn1` (single isomer, unassigned) [Example 98], the negative logarithm of the Ki (pKi) in test [1] was 9.48. The molecule also gave an inhibition constant (Ki) on GSK3β (H350L) [2] of 21.6 nM.
The corresponding values for `CC1(NC(=O)O[C@@H]2CC[C@H](c3cc(NC(=O)Cc4cc(F)cc(F)c4)n[nH]3)C2)CCOC1` (single isomer, unassigned) [Example 120] are 10.05 and 34.9 nM.
The corresponding values for `CC1(NC(=O)O[C@@H]2CC[C@H](c3cc(NC(=O)Cc4cc(F)cc(F)c4)n[nH]3)C2)CCOC1` (single isomer, unassigned) [Example 121] are 10.10 and 19.4 nM.
The like results for `COc1ccc(CC(=O)Nc2cc([C@H]3CC[C@@H](OC(=O)NC4(C)CCOC4)C3)[nH]n2)cn1` (single isomer, unassigned) [Example 122] were, in that order, 9.66 and 12.7 nM.
Regarding `COc1ccc(CC(=O)Nc2cc([C@H]3CC[C@@H](OC(=O)NC4(C)CCOC4)C3)[nH]n2)cn1` (single isomer, unassigned) [Example 123], the pKi in test [1] was 9.89. For the same molecule, on GSK3β (H350L) [2], the affinity, expressed as Ki, was 8.87 nM.
The corresponding values for `CC1(NC(=O)O[C@@H]2CC[C@H](c3cc(NC(=O)Cc4ccccc4)n[nH]3)C2)CCOC1` (single isomer, unassigned) [Example 124] are 9.72 and 80.7 nM.
The like results for `COc1ncc(CC(=O)Nc2cc([C@H]3CC[C@@H](OC(=O)NC4(C)CCOC4)C3)[nH]n2)s1` (single isomer, unassigned) [Example 126] were, in that order, 9.57 and 26.6 nM.
The corresponding values for `COc1ncc(CC(=O)Nc2cc([C@H]3CC[C@@H](OC(=O)NC4(C)CCOC4)C3)[nH]n2)s1` (single isomer, unassigned) [Example 127] are 9.64 and 20.1 nM.
For the molecule `COc1ccc(CC(=O)Nc2cc([C@H]3CC[C@@H](OC(=O)N4CCC4C)C3)[nH]n2)cn1` (single isomer, unassigned) [Example 151], in test [1], the pKi was 9.82. The inhibition constant (Ki) at GSK3β (H350L) [2] is 3.89 nM.
The like results for `COc1cc(CC(=O)Nc2cc([C@H]3CC[C@@H](OC(=O)N4CCC4C)C3)[nH]n2)ccn1` (single isomer, unassigned) [Example 153] were, in that order, 9.66 and 9.15 nM.
The corresponding values for `COc1cc(CC(=O)Nc2cc([C@H]3CC[C@@H](OC(=O)N4C[C@@H](C#N)[C@@H]4C)C3)[nH]n2)ccn1` (single isomer, unassigned) [Example 155] are 9.89 and 1.63 nM.
Regarding `COc1ncc(CC(=O)Nc2cc([C@H]3CC[C@@H](OC(=O)N4CCOC[C@@H]4C)C3)[nH]n2)s1` [Example 646, (1R,3S)-3-(3-{[(2-methoxy-1,3-thiazol-5-yl)acetyl]amino}-1H-pyrazol-5-yl)cyclopentyl (3S)-3-methylmorpholine-4-carboxylate], the figures for the pKi (in test [1]; at GSK3β (H350L) [3]) were 8.99 and 8.29, respectively.
The corresponding values for `COc1ncc(CC(=O)Nc2cc([C@H]3CC[C@@H](OC(=O)N4CCOC[C@H]4C)C3)[nH]n2)s1` [Example 647, (1R,3S)-3-(3-{[(2-methoxy-1,3-thiazol-5-yl)acetyl]amino}-1H-pyrazol-5-yl)cyclopentyl (3R)-3-methylmorpholine-4-carboxylate] are 8.97 and 8.47.
Regarding `Cc1cc(CC(=O)Nc2cc([C@H]3CC[C@@H](OC(=O)N4[C@@H](C)COC[C@@H]4C)C3)[nH]n2)on1` [Example 648, (1R,3S)-3-(3-{[(3-methyl-1,2-oxazol-5-yl)acetyl]amino}-1H-pyrazol-5-yl)cyclopentyl (3S,5S)-3,5-dimethylmorpholine-4-carboxylate], the negative logarithm of the Ki (pKi) in test [1] was 9.33; on GSK3β (H350L) [3], 7.91.
The corresponding values for `Cc1cc(CC(=O)Nc2cc([C@H]3CC[C@@H](OC(=O)N4CCOCC4(C)C)C3)[nH]n2)on1` [Example 649, (1R,3S)-3-(3-{[(3-methyl-1,2-oxazol-5-yl)acetyl]amino}-1H-pyrazol-5-yl)cyclopentyl 3,3-dimethylmorpholine-4-carboxylate] are 9.51 and 8.04.
